Results published in patent US20250115576A1, “THERAPEUTIC COMPOUNDS AND METHODS OF USE THEREOF” (Genentech, Inc., priority 2018, published 2025).
Structures can show the parent of a compound that is named as a salt.

Biological target: hNav1.7 (Homo sapiens (Human), UniProt Q15858)
Experiment: Patch voltage clamp electrophysiology (EP), Syncropatch 384PE, CHO cells stably expressing Nav1.7
Assay type: cell-based
Conditions: holding potential −50 mV, 7.5 min compound incubation, read-out: EP_SP hNav1.7 EVO IC50
Text: Example 64c. Electrophysiological Assay (EP) (In Vitro Assay)
Patch voltage clamp electrophysiology allows for the direct measurement and quantification of block of voltage-gated sodium channels (NaV's), and allows the determination of the time- and voltage-dependence of block which has been interpreted as differential binding to the resting, open, and inactivated states of the sodium channel (Hille, B., Journal of General Physiology (1977), 69: 497-515).
The following voltage clamp electrophysiology studies are performed on representative compounds using cells heterologously expressing Nav1.7 or Nav1.5 channels. cDNAs for Nav1.7 (NM_002977) and Nav1.5 (AC137587) are stably expressed in Chinese Hamstr Ovary (CHO) cells and CHL (Chinese Hamster Lung) cells respectively. Sodium currents are measured in the whole-cell configuration using Syncropatch 384PE (Nanlon Technologies, Germany). 1NPC®-384 chips with custom medium resistance and single hole mode are used. Internal solution consists of (in mM): […], 10 CsCl, 20 EGTA, and 10 Hepes (pH adjusted to 7.2); and external solution contains (in mM): 60 NMDG, 80 NaCl, 4 KCl, 1 MgCl2, 2 CaCl2, 2 D-Glucose monohydrate, 10 Hepes (pH adjusted to 7.4 with NaOH).
After system flushing, testing compounds are dissolved in external solution containing 0.1% Pluronic F-127. The chip is moved into the measuring head and the instrument primes the chip with external and internal solutions. 10 μl cells are added to the chip from a cell hotel, and a negative pressure of −50 mBar is applied to form a seal. Following treatment with seal enhancer solution and wash-off with external solution, negative pressure of −250 mbar is applied for 1 second to achieve the whole-cell configuration, followed by three washing steps in external solution. 20 μl of compounds is added to 40 μl in each well (1:3 dilution of compounds), and after mixing, 20 μl is removed so the volume is retained at 40 ul. After approximately 13 minutes recordings, 20 μl/well of 2 uM TTX, or 333 uM Tetracaine (for […]) is added to achieve full block.
For voltage protocol, an holding potential of −50 mV is applied during the whole experiment. A depolarizing step is applied to −10 mV for 10 ms, followed by a hyperpolarization step to −150 mV for 20 ms to allow channel recovery from inactivation. A second depolarizing step is applied from −150 mV to −10 mV for 10 ms, where currents are measured to derive blocking effects of compounds. Inhibition is determined based on 7.5 min of compound incubation.

Sequence of hNav1.7 (Q15858 other isoform, or with tags, fused parts or gaps): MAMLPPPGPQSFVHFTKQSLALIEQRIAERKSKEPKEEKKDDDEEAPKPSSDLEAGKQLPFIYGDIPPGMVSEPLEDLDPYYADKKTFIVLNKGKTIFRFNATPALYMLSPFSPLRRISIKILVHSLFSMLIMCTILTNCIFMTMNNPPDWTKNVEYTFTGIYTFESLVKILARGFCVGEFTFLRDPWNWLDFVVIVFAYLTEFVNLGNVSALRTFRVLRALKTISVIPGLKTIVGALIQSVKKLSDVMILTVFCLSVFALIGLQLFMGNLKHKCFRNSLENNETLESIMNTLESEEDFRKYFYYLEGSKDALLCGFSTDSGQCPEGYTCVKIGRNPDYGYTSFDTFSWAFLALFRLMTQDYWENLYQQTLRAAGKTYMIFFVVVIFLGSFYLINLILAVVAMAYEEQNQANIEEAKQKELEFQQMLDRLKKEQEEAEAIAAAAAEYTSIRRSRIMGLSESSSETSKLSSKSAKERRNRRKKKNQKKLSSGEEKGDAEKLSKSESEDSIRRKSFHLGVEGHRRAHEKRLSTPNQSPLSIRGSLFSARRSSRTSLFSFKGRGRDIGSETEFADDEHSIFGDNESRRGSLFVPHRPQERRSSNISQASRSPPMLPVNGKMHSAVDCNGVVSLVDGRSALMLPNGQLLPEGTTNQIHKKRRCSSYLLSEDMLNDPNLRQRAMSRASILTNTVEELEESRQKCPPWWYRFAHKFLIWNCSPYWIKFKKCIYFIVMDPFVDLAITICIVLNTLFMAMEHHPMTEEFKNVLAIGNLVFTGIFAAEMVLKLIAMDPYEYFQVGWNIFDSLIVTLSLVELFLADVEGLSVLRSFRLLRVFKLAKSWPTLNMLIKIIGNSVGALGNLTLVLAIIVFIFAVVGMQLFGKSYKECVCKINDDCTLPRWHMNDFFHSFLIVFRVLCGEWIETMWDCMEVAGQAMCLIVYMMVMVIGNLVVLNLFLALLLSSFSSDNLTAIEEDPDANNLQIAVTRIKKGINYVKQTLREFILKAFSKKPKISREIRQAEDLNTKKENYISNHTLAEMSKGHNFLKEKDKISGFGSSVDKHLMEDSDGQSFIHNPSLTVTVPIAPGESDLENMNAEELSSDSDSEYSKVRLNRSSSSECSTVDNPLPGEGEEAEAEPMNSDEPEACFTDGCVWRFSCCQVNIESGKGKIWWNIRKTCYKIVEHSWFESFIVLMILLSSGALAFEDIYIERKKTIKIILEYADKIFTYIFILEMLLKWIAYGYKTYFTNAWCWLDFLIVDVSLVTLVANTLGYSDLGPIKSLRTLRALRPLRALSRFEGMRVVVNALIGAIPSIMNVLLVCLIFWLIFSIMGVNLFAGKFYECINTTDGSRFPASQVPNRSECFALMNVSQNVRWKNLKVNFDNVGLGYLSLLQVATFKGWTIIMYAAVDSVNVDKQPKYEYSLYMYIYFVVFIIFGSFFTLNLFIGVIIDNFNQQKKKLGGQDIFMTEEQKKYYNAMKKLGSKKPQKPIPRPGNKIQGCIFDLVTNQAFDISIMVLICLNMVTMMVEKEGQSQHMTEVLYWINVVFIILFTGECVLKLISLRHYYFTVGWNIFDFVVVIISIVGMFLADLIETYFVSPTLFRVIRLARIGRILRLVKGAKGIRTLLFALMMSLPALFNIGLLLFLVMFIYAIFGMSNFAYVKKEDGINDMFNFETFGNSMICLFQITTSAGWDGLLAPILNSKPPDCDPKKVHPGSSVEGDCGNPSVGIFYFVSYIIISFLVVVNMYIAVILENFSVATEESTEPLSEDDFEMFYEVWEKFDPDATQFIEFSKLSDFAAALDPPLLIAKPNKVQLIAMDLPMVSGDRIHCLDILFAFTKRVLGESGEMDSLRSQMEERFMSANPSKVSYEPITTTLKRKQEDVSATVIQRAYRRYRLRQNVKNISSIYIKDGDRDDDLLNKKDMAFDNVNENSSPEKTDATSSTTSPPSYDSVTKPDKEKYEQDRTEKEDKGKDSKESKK

Compound	IC50 [nM]
CN(C)[C@H]1C[C@@H](c2ccc(Cl)c(C(F)(F)F)c2)CC[C@@H]1Oc1ccc(S(=O)(=O)Nc2ccncn2)cn1 [Example 12, 6-(((1S,2S,4S)-4-(4-chloro-3-(trifluoromethyl)phenyl)-2-(dimethylamino)cyclohexyl)oxy)-N-(pyrimidin-4-yl)pyridine-3-sulfonamide formate]	0.66
CN(C)[C@H]1C[C@@H](c2cccc(C(F)(F)F)c2)CC[C@@H]1Oc1ccc(S(=O)(=O)Nc2ccncn2)c(Cl)n1 [Example 22, 2-Chloro-6-(((1S,2S,4S)-2-(dimethylamino)-4-(3-(trifluoromethyl)phenyl)cyclohexyl)oxy)-N-(pyrimidin-4-yl)pyridine-3-sulfonamide]	2.21
Cc1nc(O[C@H]2CC[C@H](c3cccc(OC(F)F)c3)C[C@@H]2N(C)C)ccc1S(=O)(=O)Nc1ccncn1 [Example 52, 6-(((1S,2S,4S)-4-(3-(difluoromethoxy)phenyl)-2-(dimethylamino)cyclohexyl)oxy)-2-methyl-N-(pyrimidin-4-yl)pyridine-3-sulfonamide]	1.82
COc1cc(S(=O)(=O)Nc2ccncn2)cnc1O[C@H]1CC[C@H](c2cccc(C(F)(F)F)c2)C[C@@H]1N(C)C [Example 61, 6-(((1S,2S,4S)-2-(dimethyl-amino)-4-(3-(trifluoromethyl)-phenyl)cyclohexyl)oxy)-5-methoxy-N-(pyrimidin-4-yl)pyridine-3-sulfonamide formate]	10.7
CN(C)[C@H]1C[C@@H](c2cccc(C(F)(F)F)c2)CC[C@@H]1Oc1ncc(S(=O)(=O)Nc2ccncn2)cc1F [Example 21, 6-(((1S,2S,4S)-2-(Dimethylamino)-4-(3-(trifluoromethyl)phenyl)cyclohexyl)oxy)-5-fluoro-N-(pyrimidin-4-yl)pyridine-3-sulfonamide]	0.427
Cc1nc(O[C@H]2CC[C@H](c3cc(Cl)ccc3Cl)C[C@@H]2N(C)C)ccc1S(=O)(=O)Nc1ccncn1 [Example 39, 6-(((1S,2S,4S)-4-(2,5-dichlorophenyl)-2-(dimethylamino)cyclohexyl)oxy)-2-methyl-N-(pyrimidin-4-yl)pyridine-3-sulfonamide formate]	0.645
CN(C)[C@H]1C[C@@H](c2cccc(C(F)(F)F)c2)CC[C@@H]1Oc1ccc(S(=O)(=O)Nc2ccncn2)c(C2CC2)n1 [Example 34, 2-Cyclopropyl-6-(((1S,2S,4S)-2-(dimethylamino)-4-(3-(trifluoromethyl)phenyl)-cyclohexyl)oxy)-N-(pyrimidin-4-yl)pyridine-3-sulfonamide]	154
Cc1nc(O[C@H]2CC[C@H](c3cccc(C(F)(F)F)c3)C[C@@H]2N(C)C2CCC2)ccc1S(=O)(=O)Nc1ccncn1 [Example 35, 6-(((1S,2S,4S)-2-(Cyclobutyl(methyl)amino)-4-(3-(trifluoromethyl)phenyl)cyclohexyl)oxy)-2-methyl-N-(pyrimidin-4-yl)pyridine-3-sulfonamide]	0.597
Cc1nc(O[C@H]2CC[C@H](c3cccc(OC(F)(F)F)c3)C[C@@H]2N(C)C)ccc1S(=O)(=O)Nc1ccncn1 [Example 28, 6-(((1S,2S,4S)-2-(Dimethylamino)-4-(3-(trifluoromethoxy)phenyl)cyclohexyl)oxy)-2-methyl-N-(pyrimidin-4-yl)pyridine-3-sulfonamide]	0.664
CCc1cc(S(=O)(=O)Nc2ccncn2)cnc1O[C@H]1CC[C@H](c2cccc(C(F)(F)F)c2)C[C@@H]1N(C)C [Example 24, 6-(((1S,2S,4S)-2-(Dimethylamino)-4-(3-(trifluoromethyl)phenyl)cyclohexyl)oxy)-5-ethyl-N-(pyrimidin-4-yl)pyridine-3-sulfonamide formate]	8.33
CN(C)[C@H]1C[C@@H](c2cccc(C(F)(F)F)c2)CC[C@@H]1Oc1cc(Cl)c(S(=O)(=O)Nc2ccncn2)cn1 [Example 31, 4-Chloro-6-(((1S,2S,4S)-2-(dimethylamino)-4-(3-(trifluoromethyl)phenyl)cyclohexyl)oxy)-N-(pyrimidin-4-yl)pyridine-3-sulfonamide]	10
O=S(=O)(Nc1ccncn1)c1cnc(O[C@H]2CC[C@H](c3cccc(C(F)(F)F)c3)C[C@@H]2N2CCCCC2)c(Cl)c1 [Example 19, 5-chloro-6-(((1S,2S,4S)-2-(piperidin-1-yl)-4-(3-(trifluoromethyl)phenyl)cyclohexyl)oxy)-N-(pyrimidin-4-yl)pyridine-3-sulfonamide]	0.281
CN(C)[C@H]1C[C@@H](c2ccc(Cl)c(C(F)(F)F)c2)CC[C@@H]1Nc1ccc(S(=O)(=O)Nc2ccncn2)cn1 [Example 11, 6-(((1S,2S,4S)-4-(4-chloro-3-(trifluoromethyl)phenyl)-2-(dimethylamino)cyclohexyl)amino)-N-(pyrimidin-4-yl)pyridine-3-sulfonamide formate]	1.07
Cc1cc(O[C@H]2CC[C@H](c3cccc(C(F)(F)F)c3)C[C@@H]2N(C)C)ncc1S(=O)(=O)Nc1ccncn1 [Example 32, 6-(((1S,2S,4S)-2-(Dimethylamino)-4-(3-(trifluoromethyl)phenyl)cyclohexyl)oxy)-4-methyl-N-(pyrimidin-4-yl)pyridine-3-sulfonamide]	37.1
CN(C)[C@H]1C[C@@H](c2cccc(C(F)(F)F)c2)CC[C@@H]1Oc1ncc(S(=O)(=O)Nc2ccncn2)cc1C#N [Example 6, 5-Cyano-6-(((1S,2S,4S)-2-(dimethylamino)-4-(3-(trifluoromethyl)phenyl)cyclohexyl)oxy)-N-(pyrimidin-4-yl)pyridine-3-sulfonamide formate]	3.51
Cc1cc([C@H]2CC[C@H](Oc3ccc(S(=O)(=O)Nc4ccncn4)c(C)n3)[C@@H](N(C)C)C2)cc(C(F)(F)F)c1 [Example 58, 6-(((1S,2S,4S)-2-(dimethyl-amino)-4-(3-methyl-5-(trifluoromethyl)phenyl)-cyclohexyl)oxy)-2-methyl-N-(pyrimidin-4-yl)pyridine-3-sulfonamide]	0.351
Cc1nc(O[C@H]2CC[C@H](c3cccc(C(F)(F)F)c3)C[C@@H]2N2CCOCC2)ccc1S(=O)(=O)Nc1ccncn1 [Example 55, 2-methyl-6-(((1S,2S,4S)-2-morpholino-4-(3-(trifluoro-methyl)phenyl)cyclohexyl)-oxy)-N-(pyrimidin-4-yl)pyridine-3-sulfonamide]	0.527
Cc1nc(O[C@H]2CC[C@H](c3cccc(C(F)(F)F)c3C)C[C@@H]2N(C)C)ccc1S(=O)(=O)Nc1ccncn1 [Example 60, 6-(((1S,2S,4S)-2-(dimethyl-amino)-4-(2-methyl-3-(trifluoromethyl)phenyl)-cyclohexyl)oxy)-2-methyl-N-(pyrimidin-4-yl)pyridine-3-sulfonamide]	0.909
Cc1nc(O[C@H]2CC[C@H](c3ccc(Cl)c(C(F)(F)F)c3)C[C@@H]2N(C)C)ccc1S(=O)(=O)Nc1ccncn1 [Example 36, 6-(((1S,2S,4S)-4-(4-chloro-3-(trifluoromethyl)phenyl)-2-(dimethylamino)cyclohexyl)oxy)-2-methyl-N-(pyrimidin-4-yl)pyridine-3-sulfonamide]	0.247
O=S(=O)(Nc1ccncn1)c1ccc(O[C@H]2CC[C@H](c3cccc(OC(F)(F)F)c3)C[C@@H]2N2CCCC2)nc1 [Example 10, N-(pyrimidin-4-yl)-6-(((1S,2S,4S)-2-(pyrrolidin-1-yl)-4-(3-(trifluoromethoxy)phenyl)cyclohexyl)oxy)-pyridine-3-sulfonamide]	5.62
O=S(=O)(Nc1ccncn1)c1ccc(O[C@H]2CC[C@H](c3cccc(C(F)(F)F)c3)C[C@@H]2N2CCCCC2)nc1 [Example 26, 6-(((1S,2S,4S)-2-(piperidin-1-yl)-4-(3-(trifluoromethyl)phenyl)cyclohexyl)oxy)-N-(pyrimidin-4-yl)pyridine-3-sulfonamide]	1.16
CCN(C)[C@H]1C[C@@H](c2cccc(C(F)(F)F)c2)CC[C@@H]1Oc1ccc(S(=O)(=O)Nc2ccncn2)c(C)n1 [Example 48, 6-(((1S,2S,4S)-2-(Ethyl(methyl)amino)-4-(3-(trifluoromethyl)phenyl)cyclohexyl)oxy)-2-methyl-N-(pyrimidin-4-yl)pyridine-3-sulfonamide]	0.272
CN(C)[C@H]1C[C@@H](c2cccc(C(F)(F)F)c2)CC[C@@H]1Oc1ncc(S(=O)(=O)Nc2ccncn2)cc1C(F)(F)F [Example 14, 6-(((1S,2S,4S)-2-(dimethylamino)-4-(3-(trifluoromethyl)phenyl)cyclohexyl)oxy)-N-(pyrimidin-4-yl)-5-(trifluoromethyl)pyridine-3-sulfonamide]	5.08
